How the values were obtained:
Type in all cases: functional
[1] = tested on: SK-MEL-28; assay: Growth inhibition of human SK-MEL-28 cells after 48 hrs by sulforhodamine B assay; details: SK-MEL-28, 48 h
[2] = tested on: SK-MEL-2; assay: Growth inhibition of human SK-MEL-2 cells after 48 hrs by sulforhodamine B assay; details: SK-MEL-2, 48 h
[3] = tested on: Paracentrotus lividus; assay: Microtubule destabilizing activity in sea urchin free-swimming blastula assessed as embryo spinning treated at 9 to 10 hrs post-fertilization measured after 0.15 to 15 hrs
[4] = tested on: SNB-75; assay: Growth inhibition of human SNB75 cells after 48 hrs by sulforhodamine B assay; details: SNB-75, 48 h
[5] = tested on: BT-549; assay: Growth inhibition of human BT549 cells after 48 hrs by sulforhodamine B assay; details: BT-549, 48 h
[6] = tested on: MDA-MB-435; assay: Growth inhibition of human MDA-MB-435 cells after 48 hrs by sulforhodamine B assay; details: MDA-MB-435, 48 h
[7] = tested on: SK-OV-3; assay: Growth inhibition of human SKOV3 cells after 48 hrs by sulforhodamine B assay; details: SK-OV-3, 48 h
[8] = tested on: T47D; assay: Growth inhibition of human T47D cells after 48 hrs by sulforhodamine B assay
[9] = tested on: IGROV-1; assay: Growth inhibition of human IGROV1 cells after 48 hrs by sulforhodamine B assay; details: IGROV-1, 48 h
[10] = tested on: U-251; assay: Growth inhibition of human U251 cells after 48 hrs by sulforhodamine B assay; details: U-251, 48 h
[11] = tested on: Paracentrotus lividus; assay: Antimitotic activity in sea urchin fertilized egg assessed as cleavage arrest treated at 8 to 20 mins post-fertilization measured at 2.5 to 5.5 hrs post-fertilization
[12] = tested on: OVCAR-3; assay: Growth inhibition of human OVCAR3 cells after 48 hrs by sulforhodamine B assay; details: OVCAR-3, 48 h
[13] = tested on: CAKI-1; assay: Growth inhibition of human CAKI-1 cells after 48 hrs by sulforhodamine B assay; details: CAKI-1, 48 h
[14] = tested on: NCI-H23; assay: Growth inhibition of human NCI-H23 cells after 48 hrs by sulforhodamine B assay; details: NCI-H23, 48 h
[15] = tested on: MOLT-4; assay: Growth inhibition of human MOLT4 cells after 48 hrs by sulforhodamine B assay; details: MOLT-4, 48 h
[16] = tested on: COLO 205; assay: Growth inhibition of human COLO205 cells after 48 hrs by sulforhodamine B assay; details: COLO 205, 48 h
[17] = tested on: HOP-62; assay: Growth inhibition of human HOP62 cells after 48 hrs by sulforhodamine B assay; details: HOP-62, 48 h
[18] = tested on: K562; assay: Growth inhibition of human K562 cells after 48 hrs by sulforhodamine B assay; details: K562, 48 h
[19] = tested on: NCI-H322M; assay: Growth inhibition of human NCI-H322M cells after 48 hrs by sulforhodamine B assay
[20] = Growth inhibition of human NCI-ADR-RES cells after 48 hrs by sulforhodamine B assay
[21] = Growth inhibition of human UACC257 cells after 48 hrs by sulforhodamine B assay; details: UACC-257, 48 h
[22] = Growth inhibition of human EKVX cells after 48 hrs by sulforhodamine B assay
[23] = tested on: NCI-H460; assay: Growth inhibition of human NCI-H460 cells after 48 hrs by sulforhodamine B assay; details: NCI-H460, 48 h
[24] = tested on: UACC-62; assay: Growth inhibition of human UACC62 cells after 48 hrs by sulforhodamine B assay; details: UACC-62, 48 h
[25] = tested on: 786-0; assay: Growth inhibition of human 786-0 cells after 48 hrs by sulforhodamine B assay; details: 786-0, 48 h
[26] = tested on: LOX IMVI; assay: Growth inhibition of human LOXIMVI cells after 48 hrs by sulforhodamine B assay
[27] = Growth inhibition of human HCC2998 cells after 48 hrs by sulforhodamine B assay; details: HCC 2998, 48 h
[28] = tested on: Paracentrotus lividus; assay: Antimitotic activity in sea urchin fertilized egg assessed as cleavage alteration treated at 8 to 20 mins post-fertilization measured at 2.5 to 5.5 hrs post-fertilization
[29] = tested on: SW-620; assay: Growth inhibition of human SW620 cells after 48 hrs by sulforhodamine B assay; details: SW-620, 48 h
[30] = Growth inhibition of human HOP92 cells after 48 hrs by sulforhodamine B assay; details: HOP-92, 48 h
[31] = tested on: SN12C; assay: Growth inhibition of human SN12C cells after 48 hrs by sulforhodamine B assay
[32] = tested on: DU-145; assay: Growth inhibition of human DU145 cells after 48 hrs by sulforhodamine B assay; details: DU-145, 48 h
[33] = tested on: HCT-116; assay: Growth inhibition of human HCT116 cells after 48 hrs by sulforhodamine B assay; details: HCT-116, 48 h
[34] = tested on: SK-MEL-5; assay: Growth inhibition of human SK-MEL-5 cells after 48 hrs by sulforhodamine B assay; details: SK-MEL-5, 48 h
[35] = tested on: HT-29; assay: Growth inhibition of human HT-29 cells after 48 hrs by sulforhodamine B assay; details: HT-29, 48 h
[36] = Growth inhibition of human OVCAR5 cells after 48 hrs by sulforhodamine B assay; details: OVCAR-5, 48 h
[37] = tested on: MDA-MB-231; assay: Growth inhibition of human MDA-MB-231 cells after 48 hrs by sulforhodamine B assay; details: MDA-MB-231, 48 h
[38] = tested on: MCF7; assay: Growth inhibition of human MCF7 cells after 48 hrs by sulforhodamine B assay; details: MCF7, 48 h
[39] = tested on: PC-3; assay: Growth inhibition of human PC3 cells after 48 hrs by sulforhodamine B assay; details: PC-3, 48 h
[40] = Growth inhibition of human SF539 cells after 48 hrs by sulforhodamine B assay; details: SF-539, 48 h
[41] = tested on: MDA-MB-468; assay: Growth inhibition of human MDA-MB-468 cells after 48 hrs by sulforhodamine B assay; details: MDA-MB-468, 48 h
[42] = tested on: RPMI-8226; assay: Growth inhibition of human RPMI8226 cells after 48 hrs by sulforhodamine B assay; details: RPMI-8226, 48 h
[43] = tested on: M14; assay: Growth inhibition of human M14 cells after 48 hrs by sulforhodamine B assay; details: M14, 48 h
[44] = tested on: A549; assay: Growth inhibition of human A549/ATCC cells after 48 hrs by sulforhodamine B assay; details: A549, 48 h
[45] = tested on: NCI-H522; assay: Growth inhibition of human NCI-H522 cells after 48 hrs by sulforhodamine B assay; details: NCI-H522, 48 h
[46] = tested on: Malme-3M; assay: Growth inhibition of human MALME-3M cells after 48 hrs by sulforhodamine B assay
[47] = tested on: SR; assay: Growth inhibition of human SR cells after 48 hrs by sulforhodamine B assay
[48] = Growth inhibition of human RXF393 cells after 48 hrs by sulforhodamine B assay; details: RXF 393, 48 h
[49] = tested on: A498; assay: Growth inhibition of human A498 cells after 48 hrs by sulforhodamine B assay; details: A498, 48 h
[50] = tested on: KM12; assay: Growth inhibition of human KM12 cells after 48 hrs by sulforhodamine B assay; details: KM12, 48 h
[51] = Growth inhibition of human OVCAR4 cells after 48 hrs by sulforhodamine B assay; details: OVCAR-4, 48 h
[52] = tested on: CCRF-CEM; assay: Growth inhibition of human CCRF-CEM cells after 48 hrs by sulforhodamine B assay
[53] = tested on: OVCAR-8; assay: Growth inhibition of human OVCAR8 cells after 48 hrs by sulforhodamine B assay; details: OVCAR-8, 48 h
[54] = tested on: HL-60(TB); assay: Growth inhibition of human HL-60(TB) cells after 48 hrs by sulforhodamine B assay; details: HL-60, 48 h
[55] = tested on: ACHN; assay: Growth inhibition of human ACHN cells after 48 hrs by sulforhodamine B assay
[56] = Growth inhibition of human UO31 cells after 48 hrs by sulforhodamine B assay; details: UO-31, 48 h
[57] = tested on: SF-295; assay: Growth inhibition of human SF295 cells after 48 hrs by sulforhodamine B assay; details: SF-295, 48 h
[58] = tested on: TK-10; assay: Growth inhibition of human TK10 cells after 48 hrs by sulforhodamine B assay; details: TK-10, 48 h
[59] = tested on: HCT-15; assay: Growth inhibition of human HCT15 cells after 48 hrs by sulforhodamine B assay; details: HCT-15, 48 h
[60] = tested on: SNB-19; assay: Growth inhibition of human SNB19 cells after 48 hrs by sulforhodamine B assay; details: SNB-19, 48 h
[61] = tested on: NCI-H226; assay: Growth inhibition of human NCI-H226 cells after 48 hrs by sulforhodamine B assay; details: NCI-H226, 48 h
[62] = tested on: SF-268; assay: Growth inhibition of human SF268 cells after 48 hrs by sulforhodamine B assay; details: SF-268, 48 h
[63] = Growth inhibition of human Hs 578T cells after 48 hrs by sulforhodamine B assay

Structure (SMILES): COc1ccc(-c2onc(N)c2-c2cc(OC)c3c(c2)OCO3)cc1
- GI50 [1]: 5.62 µM
- GI50 [2]: 1.32 µM
- EC [3]: >10 µM
- GI50 [4]: 1.75 µM
- GI50 [5]: 2.43 µM
- GI50 [6]: 0.29 µM
- GI50 [7]: 4.2 µM
- GI50 [8]: 4.41 µM
- GI50 [9]: 10.6 µM
- GI50 [10]: 2.31 µM
- EC [11]: >4 µM
- GI50 [12]: 2.39 µM
- GI50 [13]: 3.69 µM
- GI50 [14]: 3.08 µM
- GI50 [15]: 3.28 µM
- GI50 [16]: 2.44 µM
- GI50 [17]: 4.59 µM
- GI50 [18]: 0.519 µM
- GI50 [19]: 5.98 µM
- GI50 [20]: 0.684 µM
- GI50 [21]: 3.16 µM
- GI50 [22]: 6.58 µM
- GI50 [23]: 3.04 µM
- GI50 [24]: 2.45 µM
- GI50 [25]: 6.56 µM
- GI50 [26]: 3.26 µM
- GI50 [27]: 2.77 µM
- EC [28]: 0.2 µM
- GI50 [29]: 0.495 µM
- GI50 [30]: 6.35 µM
- GI50 [31]: 5.13 µM
- GI50 [32]: 3.99 µM
- GI50 [33]: 2.01 µM
- GI50 [34]: 2.45 µM
- GI50 [35]: 1.49 µM
- GI50 [36]: 8.8 µM
- GI50 [37]: 3.75 µM
- GI50 [38]: 0.962 µM
- GI50 [39]: 4.28 µM
- GI50 [40]: 3.25 µM
- GI50 [41]: 0.538 µM
- GI50 [42]: 4.07 µM
- GI50 [43]: 1.4 µM
- GI50 [44]: 2.74 µM
- GI50 [45]: 0.796 µM
- GI50 [46]: 8.51 µM
- GI50 [47]: 0.449 µM
- GI50 [48]: 2.94 µM
- GI50 [49]: 1.81 µM
- GI50 [50]: 2.23 µM
- GI50 [51]: 16.1 µM
- GI50 [52]: 2.47 µM
- GI50 [53]: 4.26 µM
- GI50 [54]: 1.3 µM
- GI50 [55]: 6.74 µM
- GI50 [56]: 14.3 µM
- GI50 [57]: 2.32 µM
- GI50 [58]: 12.3 µM
- GI50 [59]: 1.14 µM
- GI50 [60]: 6.74 µM
- GI50 [61]: 28 µM
- GI50 [62]: 13.3 µM
- GI50 [63]: 2.94 µM

Source: ChEMBL document CHEMBL3112491, “3-(5-)-Amino-o-diarylisoxazoles: regioselective synthesis and antitubulin activity” (2014)
